Structures are written as SMILES. Where only a bound is given, the exact number is not on record here.

The target of this experiment is T1, VLA4 (Homo sapiens, UniProt P05556+P13612).
T1 construct: endogenous in cells; host or cells: Ramos cells
T1 sequence (P13612 34-1032): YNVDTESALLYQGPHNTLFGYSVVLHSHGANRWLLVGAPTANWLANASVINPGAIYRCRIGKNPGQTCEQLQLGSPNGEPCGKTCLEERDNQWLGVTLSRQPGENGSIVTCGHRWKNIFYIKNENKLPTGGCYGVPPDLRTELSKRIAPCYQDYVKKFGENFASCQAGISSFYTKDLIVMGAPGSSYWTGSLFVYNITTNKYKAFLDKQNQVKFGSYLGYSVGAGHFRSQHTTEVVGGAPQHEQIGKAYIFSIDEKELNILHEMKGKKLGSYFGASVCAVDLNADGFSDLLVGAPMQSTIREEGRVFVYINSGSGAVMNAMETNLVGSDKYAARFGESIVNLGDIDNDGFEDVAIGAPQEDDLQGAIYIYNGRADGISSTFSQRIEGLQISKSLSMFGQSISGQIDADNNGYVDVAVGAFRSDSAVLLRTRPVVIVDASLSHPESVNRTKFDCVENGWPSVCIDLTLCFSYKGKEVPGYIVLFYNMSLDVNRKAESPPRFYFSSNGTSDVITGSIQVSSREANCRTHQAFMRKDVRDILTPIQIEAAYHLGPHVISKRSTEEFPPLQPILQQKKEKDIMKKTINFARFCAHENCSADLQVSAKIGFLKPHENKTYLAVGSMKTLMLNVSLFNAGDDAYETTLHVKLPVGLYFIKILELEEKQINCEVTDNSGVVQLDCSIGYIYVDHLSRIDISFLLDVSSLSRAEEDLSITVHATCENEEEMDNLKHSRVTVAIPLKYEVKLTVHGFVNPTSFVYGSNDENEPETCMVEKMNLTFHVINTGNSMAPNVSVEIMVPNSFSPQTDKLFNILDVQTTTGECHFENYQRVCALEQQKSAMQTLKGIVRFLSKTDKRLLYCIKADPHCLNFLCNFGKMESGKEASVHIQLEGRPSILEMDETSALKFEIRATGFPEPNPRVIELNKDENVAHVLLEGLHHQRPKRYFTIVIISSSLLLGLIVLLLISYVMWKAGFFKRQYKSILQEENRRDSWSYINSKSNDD
T1 sequence (P05556 21-798): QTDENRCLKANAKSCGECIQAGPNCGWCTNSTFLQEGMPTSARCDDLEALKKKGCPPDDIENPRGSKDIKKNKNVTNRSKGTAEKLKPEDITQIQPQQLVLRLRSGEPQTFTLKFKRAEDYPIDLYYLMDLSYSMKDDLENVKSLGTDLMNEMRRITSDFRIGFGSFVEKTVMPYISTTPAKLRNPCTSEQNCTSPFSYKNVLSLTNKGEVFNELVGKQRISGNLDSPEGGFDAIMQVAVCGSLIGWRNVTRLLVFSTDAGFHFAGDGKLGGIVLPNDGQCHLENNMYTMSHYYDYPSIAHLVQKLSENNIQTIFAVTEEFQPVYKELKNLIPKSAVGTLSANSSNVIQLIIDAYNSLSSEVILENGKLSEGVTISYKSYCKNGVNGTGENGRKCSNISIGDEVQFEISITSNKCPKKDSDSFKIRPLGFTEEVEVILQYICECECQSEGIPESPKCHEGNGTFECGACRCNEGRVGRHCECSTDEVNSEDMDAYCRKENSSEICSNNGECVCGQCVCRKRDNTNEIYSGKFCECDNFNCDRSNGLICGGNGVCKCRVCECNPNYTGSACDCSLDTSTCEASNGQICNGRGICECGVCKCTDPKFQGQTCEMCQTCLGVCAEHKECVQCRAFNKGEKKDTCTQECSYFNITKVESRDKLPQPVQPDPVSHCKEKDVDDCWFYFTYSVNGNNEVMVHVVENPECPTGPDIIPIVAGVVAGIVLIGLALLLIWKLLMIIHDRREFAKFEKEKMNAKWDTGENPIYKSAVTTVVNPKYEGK
Briefly: Inhibition of VLA4-dependent adhesion to BSA-CS1 (labelled Ramos cells). Format: cell-based. As to conditions: binding of BCECF-AM labelled Ramos cells to CS1 peptide-coated wells, 2 mM MnCl2, 30 minutes at room temperature; IC50 range. An excerpt:
For example, the cell adhesion inhibitory activity of these compounds may be measured by determining the concentration of inhibitor required to block the binding of VLA-4-expressing cells to fibronectin- or CS1-coated plates. In this assay microtiter wells are coated with either fibronectin (containing the CS-1 sequence) or CS-1. If CS-1 is used, it must be conjugated to a carrier protein, such as bovine serum albumin, in order to bind to the wells. Once the wells are coated, varying concentrations of the test compound are then added together with appropriately labelled, VLA-4-expressing cells. Alternatively, the test compound may be added first and allowed to incubate with the coated wells prior to the addition of the cells. The cells are allowed to incubate in the wells for at least 30 minutes. Following incubation, the wells are emptied and washed. Inhibition of binding is measured by quantitating the fluorescence or radioactivity bound to the plate for each of the various concentrations of test compound, as well as for controls containing no test compound.
VLA-4-expressing cells that may be utilized in this assay include Ramos cells, Jurkat cells, A375 melanoma cells, as well as human peripheral blood lymophocytes (PBLs). The cells used in this assay may be fluorescently or radioactively labelled.
This assay was used to assess the potency of VLA4-directed inhibitory compounds of this invention.
We dissolved BSA-SMCC (Pierce Chemical, Rockford, Ill.; Catalog # 77115) in H2O at a concentration of 10 mg/mL. [SEQ ID NO:4]: […](“Cys-Tyr-CS1 peptide”), which we synthesized by conventional solid phase chemistry and purified by HPLC, was dissolved in 10 mM HEPES pH 5, 50 mM NaCl and 0.1 mM EDTA also at a concentration of 10 mg/mL. We then mixed 500 μL of BSA-SMCC, 250 μL of Cys-Tyr-CS1 peptide and 75 μL of […] and allowed the conjugation reaction to proceed for 30 minutes. We stopped the reaction by adding 1 μL of beta-mercaptoethanol. Samples were analyzed for cross-linking by SDS-PAGE. This reaction produced multiple molecules of the Cys-Tyr-CS1 peptide conjugate to each BSA molecule.
We coated the wells of a Linbro titertek polystyrene 96-well flat bottom plate (Flow Laboratories, Maclean, Va.; catalog #76-231-05) with 100 μL of the above-described BSA-CS1 solution diluted to 1 μg/mL in 0.05 M NaHCO3 (15 mM NaHCO3, 35 mM Na2CO3) pH 9.2. Some wells were not coated with CS1 in order to assess non-specific cell binding (NSB). The plate was then incubated overnight at 4° C.
Following this incubation, the contents of the wells were removed by inverting and blotting the plate. All of the wells were then blocked with 100 μL of 1% BSA in PBS, 0.02% NaN3, for a minimum of one hour at room temperature.
3. Preparation of Fluorescently Labelled Ramos Cells Ramos cells are grown, maintained and labelled in RPMI 1640 culture medium containing 1% BSA. Just prior to running the assay, we added 2′,7′-bis-(2-carboxyethyl)5 (and -6) carboxyfluorescein acetoxymethyl ester (“BCECF-AM”; Molecular Probes Inc., Eugene, Oreg.; catalog #B-1150) to a final concentration of 2 μM to a culture of Ramos cells (4×10^6 cells/mL). We incubated the cells for 20 minutes at 37° C.
Following labelling, the cells were washed twice in assay buffer (24 mM TRIS, 137 mM NaCl, 2.7 mM KCl, pH 7.4, containing 0.1% BSA and 2 mM glucose) to remove any cations originating from the culture medium. The cells were then resuspended in assay buffer to 4×10^6 cells/mL and 2 mM MnCl2 was added to upregulate VLA4 on the surface of the cells.
Immediately prior to running the assay, we removed the BSA blocking solution from the 96-well plates and washed the wells with 100 μL of assay buffer. We then added to each well 25 μL of test cell adhesion inhibitory compound at 2× the final concentration and 25 μL of the labelled Ramos cells. Final concentrations were selected across a range of anticipated IC50s, usually between 0.01 nM–10 μM. […]
What is called IC50 is the concentration at which inhibition is half-maximal. `CC(C)CC(NC(=O)Cc1cccc(O)c1)C(=O)NC(CC(=O)O)c1ccccc1` (stereo not shown) [compound 1097]: the half-inhibitory concentration (IC50) lay within 0.05 to 10 µM. The result for `COc1ccccc1C(CC(=O)O)NC(=O)C(CC(C)C)NC(=O)Cc1ccc(NC(=O)Nc2ccccc2)cc1` (stereo not shown) [compound 1069] reads less than 0.05 µM; that for `COc1ccc(C(CC(=O)O)NC(=O)C(CCCCNC(=O)OCc2ccccc2)NC(=O)Cc2ccc(NC(=O)Nc3ccccc3C)cc2)cc1OC` (stereo not shown) [compound 1217], less than 0.05 µM. The result for `CC(C)CC(NC(=O)Cc1ccccc1)C(=O)NC(CC(=O)O)c1ccc2c(c1)CCC2` (stereo not shown) [compound 1036] reads 0.05 to 10 µM. The result for `CC(C)CC(NC(=O)c1ccc2ccccc2n1)C(=O)NC(CC(=O)O)c1ccccc1` (stereo not shown) [compound 1149] reads more than 10 µM; that for `CC(=O)Nc1ccc(CC(=O)NC(CC(C)C)C(=O)NC(CC(=O)O)c2ccccc2)cc1` (stereo not shown) [compound 1147], 0.05 to 10 µM; that for `CC(=O)Nc1cccc(CC(=O)NC(CC(C)C)C(=O)NC(CC(=O)O)c2ccccc2)c1` (stereo not shown) [compound 1018], more than 10 µM. In turn, `Cc1cccc(NC(=O)Nc2ccc(CC(=O)NC(CC(C)C)C(=O)NC(CC(=O)O)c3ccc4c(c3)OCO4)cc2)c1` (stereo not shown) [compound 1168] gave a half-inhibitory concentration (IC50) of 0.05 to 10 µM.

As for `CC(C)(C)OC(=O)NCC(NC(=O)Cc1ccc(NC(=O)Nc2ccccc2)cc1)C(=O)NC(CC(=O)O)c1ccccc1` (stereo not shown) [compound 1134], the IC50 lay within 0.05 to 10 µM.

On to `CC(C)CC(NC(=O)Cc1ccc(O)cc1)C(=O)NC(CC(=O)O)c1ccccc1` (stereo not shown) [compound 1091], for which the concentration for half-maximal inhibition (IC50) lay in the range of 0.05 to 10 µM. The result for `Cc1ccccc1NC(=O)Nc1ccc(CC(=O)NC(CCCCNS(C)(=O)=O)C(=O)NC(CC(=O)O)c2ccc3c(c2)OCO3)cc1` (stereo not shown) [compound 1294] reads less than 0.05 µM; that for `Cc1ccccc1NC(=O)Nc1ccc(CC(=O)NC(CCS(C)(=O)=O)C(=O)NC(CC(=O)O)c2ccc3c(c2)OCO3)cc1` (stereo not shown) [compound 1245], less than 0.05 µM; that for `CC(C)CC(NC(=O)Cc1cccc(N)c1)C(=O)NC(CC(=O)O)c1ccccc1` (stereo not shown) [compound 1030], more than 10 µM. Take `O=C(O)CC(NC(=O)C(CCC(=O)N1CCOCC1)NC(=O)Cc1ccc(NC(=O)Nc2ccccc2)cc1)c1ccc2c(c1)OCO2` (stereo not shown) [compound 1216]: the concentration for half-maximal inhibition (IC50) lay in the range of 0.05 to 10 µM. `O=C(O)CC(NC(=O)C(Cc1nccs1)NC(=O)Cc1ccc(NC(=O)Nc2ccccc2)cc1)c1ccccc1` (stereo not shown) [compound 1037]: the half-maximal inhibitory concentration (IC50) lay in the range of 0.05 to 10 µM. Turning to `CC(C)CC(NC(=O)Cc1ccc(O)cc1)C(=O)NC(CC(=O)O)c1cccnc1` (stereo not shown) [compound 1148], the IC50 was more than 10 µM. The result for `CC(C)CC(NC(=O)Cc1ccc(NC(=O)OC(C)(C)C)cc1)C(=O)NC(CC(=O)O)c1ccccc1` (stereo not shown) [compound 1145] reads 0.05 to 10 µM; that for `CC(C)CC(NC(=O)Cc1cccc(NS(=O)(=O)c2ccccc2)c1)C(=O)NC(CC(=O)O)c1ccccc1` (stereo not shown) [compound 1032], more than 10 µM. For `COc1cccc(C(CC(=O)O)NC(=O)C(CC(C)C)NC(=O)Cc2ccc(NC(=O)Nc3ccccc3)cc2)c1` (stereo not shown) [compound 1072], the half-inhibitory concentration (IC50) was less than 0.05 µM.

The compound `CC(C)CC(NC(=O)Cc1ccc(NC(=O)Nc2ccccc2C(C)C)cc1)C(=O)NC(CC(=O)O)c1ccc2c(c1)OCO2` (stereo not shown) [compound 1206] showed a concentration for half-maximal inhibition (IC50) of less than 0.05 µM. On to `CC(C)CC(NC(=O)Cc1ccc(Nc2ncc[nH]2)cc1)C(=O)NC(CC(=O)O)c1ccc2c(c1)OCO2` (stereo not shown) [compound 1390], for which the IC50 lay in the range of 0.05 to 10 µM. The result for `COC(C)C(NC(=O)Cc1ccccc1)C(=O)NC(CC(=O)O)c1ccccc1` (stereo not shown) [compound 1117] reads more than 10 µM; that for `O=C(O)CC(NC(=O)C(CCc1ccccc1)NC(=O)Cc1ccccc1)c1ccccc1` (stereo not shown) [compound 1123], more than 10 µM; that for `CC(C)CC(NC(=O)c1c[nH]c2ccccc12)C(=O)NC(CC(=O)O)c1ccccc1` (stereo not shown) [compound 1014], more than 10 µM. `NCCCCC(NC(=O)Cc1ccc(NC(=O)Nc2ccccc2)cc1)C(=O)NC(CC(=O)O)c1ccccc1` (stereo not shown) [compound 1139] yielded an IC50 of 0.05 to 10 µM. The result for `CC(C)CC(NC(=O)Cc1cccc([N+](=O)[O-])c1)C(=O)NC(CC(=O)O)c1ccccc1` (stereo not shown) [compound 1113] reads more than 10 µM; that for `CC(C)CC(NC(=O)Nc1ccc(N)cc1)C(=O)NC(CC(=O)O)c1ccccc1` (stereo not shown) [compound 1109], more than 10 µM; that for `COc1ccc(C(CC(=O)O)NC(=O)C(CC(C)C)NC(=O)Cc2ccc(NC(=O)Nc3ccccc3OC)cc2)cc1` (stereo not shown) [compound 1192], less than 0.05 µM. The result for `COc1cc(CC(=O)NC(CC(C)C)C(=O)NC(CC(=O)O)c2ccccc2)cc(OC)c1O` (stereo not shown) [compound 1111] reads more than 10 µM; that for `COc1ccc(C(CC(=O)O)NC(=O)C(CC(C)C)NC(=O)Cc2ccccc2)cc1` (stereo not shown) [compound 1178], 0.05 to 10 µM; that for `COc1ccc(C(CC(=O)O)NC(=O)C(CC(C)C)NC(=O)Cc2ccc(NC(=O)Nc3cccnc3C)cc2)cc1` (stereo not shown) [compound 1220], 0.05 to 10 µM.

`COc1ccc(C(CC(=O)O)NC(=O)C(CC(C)C)NC(=O)Cc2ccc(NC(=O)Nc3ccccc3C)cc2)cc1` (stereo not shown) [compound 1190] came in with a 50% inhibitory concentration (IC50) of less than 0.05 µM.

As for `COC(=O)c1ccc(C(CC(=O)O)NC(=O)C(CCCCNS(C)(=O)=O)NC(=O)Cc2ccc(NC(=O)Nc3ccccc3C)cc2)cc1` (stereo not shown) [compound 1382], the IC50 is less than 0.05 µM. The result for `O=C(O)CC(NC(=O)C(Cc1ccccc1)NC(=O)Cc1ccccc1)c1ccccc1` (stereo not shown) [compound 1046] reads more than 10 µM; that for `CC(C)CC(NC(=O)CCCNC(=O)Nc1ccccc1)C(=O)NC(CC(=O)O)c1ccccc1` (stereo not shown) [compound 1187], more than 10 µM.

Compound `Cc1ccccc1NC(=O)Nc1ccc(CC(=O)NC(CC(C)C)C(=O)NC(CC(=O)O)c2ccc3c(c2)OCO3)cc1` (stereo not shown) [compound 1179] came in with an IC50 of less than 0.05 µM. The result for `COc1ccc(C(CC(=O)O)NC(=O)C(CCSC)NC(=O)Cc2ccc(NC(=O)Nc3ccccc3C)cc2)cc1` (stereo not shown) [compound 1238] reads less than 0.05 µM. The result for `CC(C)CC(NC(=O)Cc1ccccc1)C(=O)NC(CC(=O)O)c1ccccc1` (stereo not shown) [compound 1081] reads 0.05 to 10 µM; that for `CC(C)CC(NC(=O)Cc1ccc(NS(=O)(=O)c2ccccc2)cc1)C(=O)NC(CC(=O)O)c1ccccc1` (stereo not shown) [compound 1104], 0.05 to 10 µM. The result for `CC(C)CC(NC(=O)c1ccccc1)C(=O)NC(CC(=O)O)c1ccccc1` (stereo not shown) [compound 1008] reads more than 10 µM. Consider `CCC(C)C(NC(=O)Cc1ccc(NC(=O)Nc2ccccc2)cc1)C(=O)NC(CC(=O)O)c1ccccc1` (stereo not shown) [compound 1131], for which the concentration for half-maximal inhibition (IC50) was 0.05 to 10 µM.

`CN(C)C(=O)CC(NC(=O)Cc1ccc(NC(=O)Nc2ccccc2)cc1)C(=O)NC(CC(=O)O)c1ccc2c(c1)OCO2` (stereo not shown) [compound 1214] gave an IC50 of 0.05 to 10 µM. Under `COc1cccc(NC(=O)Nc2ccc(CC(=O)NC(CC(C)C)C(=O)NC(CC(=O)O)c3ccc4c(c3)OCO4)cc2)c1` (stereo not shown) [compound 1078] stands 0.05 to 10 µM; under `O=C(O)CC(NC(=O)C(CCCCNC(=O)OCc1ccccc1)NC(=O)Cc1ccc(NC(=O)Nc2ccccc2)cc1)c1ccccc1` (stereo not shown) [compound 1132], 0.05 to 10 µM. Take `CC(C)CC(NC(=O)Cc1ccc(NC(=O)Nc2ccccc2C(C)(C)C)cc1)C(=O)NC(CC(=O)O)c1ccc2c(c1)OCO2` (stereo not shown) [compound 1209]: the IC50 is more than 10 µM. `CC(C)CC(NC(=O)Cc1ccc(NC(=O)Nc2ccccc2)cc1)C(=O)NC(CC(=O)O)c1ccc2c(c1)OCO2` (stereo not shown) [compound 1050]: the 50% inhibitory concentration (IC50) is less than 0.05 µM.

Values taken from patent US7001921B1, “Cell adhesion inhibitors” (Biogen Idec MA Inc., priority 1995, dated 2006).
